The values that follow come from patent publication US10342480B2, “Magnetoencephalography biomarkers of GABA-B agonist drug activity in autism spectrum disorders” (THE CHILDREN'S HOSPITAL OF PHILADELPHIA, priority 2013, dated 2019).

In one assay the test system is baseline gamma power. Particulars: NMDAR antagonists; in vivo LFP and EEG recordings in awake rodents; cited from earlier work.
The subject of assay [1] is auditory brain activity (M100 latency, gamma-band ITC, steady state gamma) in autism. The assay can be described thus: Magnetoencephalography (MEG) of auditory responses at baseline and 12 weeks after treatment, single subject from clinical trial. The format is in vivo, human. Here is the method:
FIG. 5 provides graphs of M100 latency in autism in response to STX209, showing baseline and post-treatment.
To measure M100 STG latency, a 1 Hz (6 dB/octave, forward) to 40 Hz (48 dB/octave, zero-phase) bandpass filter was applied and left and right M100 STG peak latency (measured in nano-Ampere-meters, nAm) was calculated from the largest point in the M100 scoring window (90 to 190 ms) using in-house MatLab software.
The calculation of single-trial phase and magnitude for the left and right STG sources used a modification of procedures (Hoechstetter et al. (2004) Brain Topogr, 16:233-8.) where in each participant the derived source model was applied to the raw unfiltered data. Transformation from the time domain to the time-frequency domain used complex demodulation procedures (Papp et al. (1977) Biomed Sci Instrum, 13:135-45) implemented in BESA 5.2, using frequencies between 4 and 80 Hz, in steps of 2 Hz.1 Continuous data were analyzed relative to the tone onset every 25 ms, utilizing +/−39.4 ms and +/−2.83 Hz (full width at half maximum parameters) of contiguous data at each 25 ms step. Time-frequency measures were computed from −400 to 400 ms relative to stimulus onset. For evoked activity, background activity at each frequency (average power −400 to −100 ms) was calculated and subtracted as a function of frequency. In addition to evoked activity, for each time-frequency bin, a measure of phase-locking referred to as inter-trial coherence was computed as
[formula] where the sum is over all N trials, and Ø (k) is the phase of the signal in the k^th trial. Inter-trial coherence (ITC) is a normalized measure with ITC=1 reflecting no phase variability and ITC=0 reflecting maximal phase variability across trials (Lachaux et al. (1999) Hum. Brain Mapp, 8:194-208). Group Comparisons
A single subject from a recent phase/T clinical trial of STX209 (arbaclofen), a […] agonist, underwent MEG at baseline and at 12 weeks after treatment. […] Indeed, a reduction in 100 ms latency for 4 stimuli in both hemispheres was observed.

Each structure is given as a SMILES string.

As to `C[C@]12N[C@H](Cc3ccccc31)c1ccccc12` [MK-801], the baseline gamma power result with baseline gamma power was “dose-dependent increase in baseline gamma power”.

Turning to `c1ccc(C2(N3CCCCC3)CCCCC2)cc1` [PCP], the baseline gamma power entry in the assay with baseline gamma power is “dose-dependent increase in baseline gamma power”.

Consider `NC[C@H](CC(=O)O)c1ccc(Cl)cc1` [STX209, arbaclofen], for which the “auditory M100 latency” value in assay [1] (MEG at baseline vs 12 weeks after treatment, 4 stimuli, both hemispheres, FIG. 5) was “shortened post-treatment”. The “gamma-band inter-trial coherence (ITC)” value in assay [1] (MEG at baseline vs 12 weeks after treatment, both hemispheres, FIG. 6) is listed as “gamma band ITC was restored after treatment”. Further, the “steady state gamma power” value in assay [1] (baseline vs post-treatment, elicited by AM tone, driven at 40 Hz, FIG. 7) is “boosted post-treatment”.

For the compound `CNC1(c2ccccc2Cl)CCCCC1=O` (stereo not drawn) [ketamine], in the assay with baseline gamma power, the baseline gamma power entry is “dose-dependent increase in baseline gamma power”.
